13 compounds from US8871753B2, “Macrocyclic compounds and their use as kinase inhibitors” (Incyte Corporation, priority 2008, dated 2014) can be followed below.

A value given as a limit tells only on which side of the number the result lay.

Holding throughout (assay type): biochemical
In assay [1] the target is T1, human JAK1 (a.a. 837-1142) (Homo sapiens, UniProt P23458).
T1 construct: human JAK1 (a.a. 837-1142); His tag (N); made in house; host or cells: insect cells (baculovirus)
In words: In vitro JAK kinase assay (HTRF, phosphorylation of a biotinylated peptide), JAK1. As to conditions: method AA1 (90 μM ATP) or AA2 (1000 μM ATP), not stated per value; read-out: JAK1 IC50. The method in brief: (§1)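 Kinase activity was measured as phosphorylation of a biotinylated peptide, with ATP at 90 μM for JAK1, 30 μM for JAK2 and 3 μM for JAK3. Reactions ran 1 hr at room temperature, were stopped with EDTA plus SA-APC and Eu-Py20, and were read by HTRF after 40 minutes of antibody binding.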
In general terms: TR-FRET usually uses a lanthanide donor and a delayed reading to cut background.

Assay [2] deals with T2, human JAK2 (a.a. 828-1132) (Homo sapiens, UniProt O60674).
T2 construct: JAK2 (a.a. 828-1132); His tag (N); made in house; host or cells: insect cells (baculovirus)
Briefly: In vitro JAK kinase assay (HTRF, phosphorylation of a biotinylated peptide), JAK2. As to conditions: method AA1 (30 μM ATP) or AA2 (1000 μM ATP), not stated per value. In short, it runs like this: as §1

In assay [3] the target is T3, human JAK3 (a.a. 781-1124) (Homo sapiens, UniProt P52333).
T3 construct: JAK3 (a.a. 781-1124); His tag (N); made in house; host or cells: insect cells (baculovirus)
Briefly: In vitro JAK kinase assay (HTRF, phosphorylation of a biotinylated peptide), JAK3. As to conditions: method AA1 (3 μM ATP) or AA2 (1000 μM ATP), not stated per value. In short, it runs like this:
as §1

A further assay concerns the target TYK2 (Homo sapiens, UniProt P29597). Briefly: TYK2 kinase inhibition (Table A1).
The target in assay [4] is T4, Recombinant Human Anaplastic Lymphoma Kinase (Homo sapiens, UniProt Q9UM73).
T4 construct: purchased Invitrogen, Carlsbad, Calif
In words: ALK HTRF kinase assay. The following applies: compound at 500 nM or 1 mM, 90 μM ATP. The method in brief:
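Compounds were incubated with recombinant human ALK and a biotin-tagged peptide substrate. Product was captured with streptavidin-APC and probed with a europium anti-phosphotyrosine antibody, and plates were read for time-resolved fluorescence. Dose-response data were fitted to derive IC50.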

T4 sequence (Q9UM73 19-1620): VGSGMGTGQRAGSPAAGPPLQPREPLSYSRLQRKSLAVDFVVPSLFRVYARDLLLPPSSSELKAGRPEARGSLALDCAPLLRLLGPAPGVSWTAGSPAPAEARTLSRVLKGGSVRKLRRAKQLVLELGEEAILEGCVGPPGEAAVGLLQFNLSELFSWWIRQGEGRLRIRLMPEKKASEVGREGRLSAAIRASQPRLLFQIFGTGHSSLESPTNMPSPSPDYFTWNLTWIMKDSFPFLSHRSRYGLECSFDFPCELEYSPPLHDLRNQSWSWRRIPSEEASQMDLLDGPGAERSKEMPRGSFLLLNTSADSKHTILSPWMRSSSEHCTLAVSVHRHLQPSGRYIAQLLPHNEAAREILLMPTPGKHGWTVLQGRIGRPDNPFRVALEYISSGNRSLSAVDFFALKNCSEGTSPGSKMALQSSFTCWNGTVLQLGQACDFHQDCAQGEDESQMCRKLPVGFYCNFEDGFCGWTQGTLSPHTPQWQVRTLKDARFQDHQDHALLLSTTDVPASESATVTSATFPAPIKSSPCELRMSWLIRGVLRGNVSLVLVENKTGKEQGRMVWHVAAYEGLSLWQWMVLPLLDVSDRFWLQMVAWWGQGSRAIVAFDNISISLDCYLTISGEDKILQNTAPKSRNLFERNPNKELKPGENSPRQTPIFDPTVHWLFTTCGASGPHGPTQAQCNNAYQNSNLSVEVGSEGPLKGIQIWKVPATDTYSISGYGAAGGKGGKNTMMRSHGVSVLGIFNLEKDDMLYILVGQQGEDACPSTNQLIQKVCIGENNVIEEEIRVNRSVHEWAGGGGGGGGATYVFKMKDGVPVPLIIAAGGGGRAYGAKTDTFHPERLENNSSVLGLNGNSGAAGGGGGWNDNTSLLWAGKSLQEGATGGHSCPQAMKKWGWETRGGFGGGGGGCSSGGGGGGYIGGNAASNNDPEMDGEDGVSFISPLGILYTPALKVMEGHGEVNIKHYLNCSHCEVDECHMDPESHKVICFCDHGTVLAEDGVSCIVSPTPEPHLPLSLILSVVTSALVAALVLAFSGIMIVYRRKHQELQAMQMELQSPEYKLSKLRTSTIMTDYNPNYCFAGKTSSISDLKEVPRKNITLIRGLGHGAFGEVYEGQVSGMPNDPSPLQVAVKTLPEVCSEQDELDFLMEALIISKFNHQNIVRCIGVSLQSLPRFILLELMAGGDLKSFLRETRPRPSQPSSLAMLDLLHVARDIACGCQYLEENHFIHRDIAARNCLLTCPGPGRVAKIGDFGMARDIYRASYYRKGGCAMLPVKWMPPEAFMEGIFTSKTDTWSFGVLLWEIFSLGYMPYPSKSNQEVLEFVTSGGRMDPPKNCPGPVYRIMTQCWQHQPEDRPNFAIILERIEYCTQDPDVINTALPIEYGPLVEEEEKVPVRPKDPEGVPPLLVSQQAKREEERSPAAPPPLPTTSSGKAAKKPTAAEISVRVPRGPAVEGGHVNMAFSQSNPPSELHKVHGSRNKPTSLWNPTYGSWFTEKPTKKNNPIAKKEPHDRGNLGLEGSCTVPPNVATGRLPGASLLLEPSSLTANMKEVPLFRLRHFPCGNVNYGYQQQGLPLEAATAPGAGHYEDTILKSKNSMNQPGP
TYK2, sequence (P29597 whole entry): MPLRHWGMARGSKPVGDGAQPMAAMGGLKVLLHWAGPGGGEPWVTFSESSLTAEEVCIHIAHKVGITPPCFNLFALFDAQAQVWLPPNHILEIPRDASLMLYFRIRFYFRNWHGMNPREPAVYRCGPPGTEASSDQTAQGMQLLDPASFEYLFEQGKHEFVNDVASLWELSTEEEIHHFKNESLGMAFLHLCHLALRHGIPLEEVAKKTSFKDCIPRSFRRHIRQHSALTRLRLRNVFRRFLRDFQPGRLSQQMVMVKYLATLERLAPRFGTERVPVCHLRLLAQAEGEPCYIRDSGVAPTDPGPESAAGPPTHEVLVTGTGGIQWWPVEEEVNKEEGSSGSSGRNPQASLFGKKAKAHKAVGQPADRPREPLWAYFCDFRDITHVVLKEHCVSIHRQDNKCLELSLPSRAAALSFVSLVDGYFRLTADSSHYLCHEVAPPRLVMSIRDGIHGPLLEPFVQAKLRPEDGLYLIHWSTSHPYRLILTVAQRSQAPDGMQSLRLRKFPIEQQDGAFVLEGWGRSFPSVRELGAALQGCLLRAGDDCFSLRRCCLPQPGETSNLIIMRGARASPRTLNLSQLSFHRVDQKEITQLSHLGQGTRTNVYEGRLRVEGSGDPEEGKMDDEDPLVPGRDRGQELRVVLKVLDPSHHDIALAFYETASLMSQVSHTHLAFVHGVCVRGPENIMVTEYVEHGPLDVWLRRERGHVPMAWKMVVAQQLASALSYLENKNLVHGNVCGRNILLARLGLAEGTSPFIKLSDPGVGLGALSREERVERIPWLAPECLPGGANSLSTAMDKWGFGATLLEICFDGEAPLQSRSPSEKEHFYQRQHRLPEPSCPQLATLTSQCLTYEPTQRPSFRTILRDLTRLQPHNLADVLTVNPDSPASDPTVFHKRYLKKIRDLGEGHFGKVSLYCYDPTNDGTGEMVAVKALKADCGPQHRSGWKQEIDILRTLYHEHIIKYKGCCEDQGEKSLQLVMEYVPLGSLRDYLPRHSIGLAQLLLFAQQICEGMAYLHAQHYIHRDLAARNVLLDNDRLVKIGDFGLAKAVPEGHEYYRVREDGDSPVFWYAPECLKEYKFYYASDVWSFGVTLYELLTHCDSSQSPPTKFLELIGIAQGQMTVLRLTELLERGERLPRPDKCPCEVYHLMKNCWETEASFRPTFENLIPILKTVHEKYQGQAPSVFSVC
T3 sequence (P52333 781-1124): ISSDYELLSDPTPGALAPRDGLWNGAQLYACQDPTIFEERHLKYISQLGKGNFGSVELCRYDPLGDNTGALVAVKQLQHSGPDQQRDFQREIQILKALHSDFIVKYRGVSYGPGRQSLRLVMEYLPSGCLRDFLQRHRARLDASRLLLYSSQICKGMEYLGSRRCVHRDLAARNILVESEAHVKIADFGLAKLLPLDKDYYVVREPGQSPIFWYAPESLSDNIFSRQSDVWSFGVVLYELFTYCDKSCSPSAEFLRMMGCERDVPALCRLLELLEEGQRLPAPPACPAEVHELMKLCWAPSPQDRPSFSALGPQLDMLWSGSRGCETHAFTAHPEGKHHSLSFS
T1 sequence (P23458 849-1154): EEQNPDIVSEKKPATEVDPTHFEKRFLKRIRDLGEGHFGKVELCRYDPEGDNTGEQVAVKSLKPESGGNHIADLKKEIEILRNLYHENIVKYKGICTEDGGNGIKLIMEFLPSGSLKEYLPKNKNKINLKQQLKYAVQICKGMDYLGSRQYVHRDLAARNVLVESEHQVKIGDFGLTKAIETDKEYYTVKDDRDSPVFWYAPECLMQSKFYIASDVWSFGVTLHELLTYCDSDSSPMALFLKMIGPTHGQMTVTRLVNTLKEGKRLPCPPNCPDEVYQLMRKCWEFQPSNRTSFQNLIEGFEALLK
T2 sequence (O60674 828-1132): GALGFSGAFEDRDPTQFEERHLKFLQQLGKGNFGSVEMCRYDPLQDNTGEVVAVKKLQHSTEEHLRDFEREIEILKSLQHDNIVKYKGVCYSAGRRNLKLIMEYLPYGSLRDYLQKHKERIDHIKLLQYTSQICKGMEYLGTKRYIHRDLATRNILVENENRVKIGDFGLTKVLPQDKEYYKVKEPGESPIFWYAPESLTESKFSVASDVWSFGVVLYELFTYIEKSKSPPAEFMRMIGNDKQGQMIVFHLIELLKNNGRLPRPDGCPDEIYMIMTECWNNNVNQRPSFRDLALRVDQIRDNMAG

As a reminder, the IC50 is the concentration at which inhibition is half-maximal. On to `O=C(CC1CCN(C(=O)c2nc[nH]n2)CC1)Nc1ccc2cc1CCc1cncc(c1)Nc1ncc(Cl)c(n1)N2` [Example A136, N-[6-Chloro-2,4,8,18,22-pentaazatetracyclo[14.3.1.1(3,7).1(9,13)]docosa-1(20),3(22),4,6,9(21),10,12,16,18-nonaen-12-yl]-2-[1-(1H-1,2,4-triazol-3-ylcarbonyl)piperidin-4-yl]acetamide bis(trifluoroacetate)], for which the IC50 in assay [1] amounted to 0.4 nM; in assay [2], 2.4 nM; in assay [3] it was 57 nM; against TYK2, 2.1 nM. In addition, the “ALK % of inhibition at a concentration of 500 nM or 1 mM” value (from here on “ALK % of inhibition”) in assay [4] amounted to 38%.

On to `O=C(CC1CCN(C(=O)c2c[nH]nn2)CC1)Nc1ccc2cc1CCc1cncc(c1)Nc1ncc(Cl)c(n1)N2` [Example A137, N-[6-Chloro-2,4,8,18,22-pentaazatetracyclo[14.3.1.1(3,7).1(9,13)]docosa-1(20),3(22),4,6,9(21),10,12,16,18-nonaen-12-yl]-2-[1-(1H-1,2,3-triazol-4-ylcarbonyl)piperidin-4-yl]acetamide bis(trifluoroacetate)], for which the half-maximal inhibitory concentration (IC50) stood at 0.6 nM in assay [1], 3 nM in assay [2], 41 nM in assay [3] and 1 nM against TYK2. Further, the “ALK % of inhibition” value in assay [4] came to 54%.

Regarding `O=C(CC1CCN(C(=O)c2cnon2)CC1)Nc1ccc2cc1CCc1cncc(c1)Nc1ncc(Cl)c(n1)N2` [Example A138, N-[6-Chloro-2,4,8,18,22-pentaazatetracyclo[14.3.1.1(3,7).1(9,13)]docosa-1(20),3(22),4,6,9(21),10,12,16,18-nonaen-12-yl]-2-[1-(1,2,5-oxadiazol-3-ylcarbonyl)piperidin-4-yl]acetamide bis(trifluoroacetate)], the 50% inhibitory concentration (IC50) in assay [1] is 2 nM; in assay [2], 7.2 nM; in assay [3], 30 nM; at TYK2, 8 nM. Further, the “ALK % of inhibition” value in assay [4] is 46%.

On to `O=C(CC1CCN(C(=O)c2ncco2)CC1)Nc1ccc2cc1CCc1cncc(c1)Nc1ncc(Cl)c(n1)N2` [Example A139, N-[6-Chloro-2,4,8,18,22-pentaazatetracyclo[14.3.1.1(3,7).1(9,13)]docosa-1(20),3(22),4,6,9(21),10,12,16,18-nonaen-12-yl]-2-[1-(1,3-oxazol-2-ylcarbonyl)piperidin-4-yl]acetamide bis(trifluoroacetate)], for which the concentration for half-maximal inhibition (IC50) in assay [1] turned out to be 1.1 nM; in assay [2], 7.6 nM; in assay [3], 178 nM; against TYK2, 3.4 nM. In assay [4], the “ALK % of inhibition” value came out at 27%.

On to `CC(C)N1CCC(CC(=O)Nc2ccc3cc2CCc2cncc(c2)Nc2ncc(Cl)c(n2)N3)CC1` [Example A140, N-[6-Chloro-2,4,8,18,22-pentaazatetracyclo[14.3.1.1(3,7).1(9,13)]docosa-1(20),3(22),4,6,9(21),10,12,16,18-nonaen-12-yl]-2-(1-isopropylpiperidin-4-yl)acetamide tris(trifluoroacetate)], for which the IC50 was 38 nM in assay [1], 46 nM in assay [2], 117 nM in assay [3] and 68 nM on TYK2. The “ALK % of inhibition” value in assay [4] is recorded as 18%.

On to `N#Cc1ccccc1NC(=O)N1CCC(CC(=O)Nc2ccc3cc2CCc2cncc(c2)Nc2ncc(Cl)c(n2)N3)CC1` [Example A141, 4-(2-{[6-Chloro-2,4,8,18,22-pentaazatetracyclo[14.3.1.1(3,7).1(9,13)]docosa-1(20),3(22),4,6,9(21),10,12,16,18-nonaen-12-yl]amino}-2-oxoethyl)-N-(2-cyanophenyl)piperidine-1-carboxamide bis(trifluoroacetate)], for which the IC50 is 3.5 nM in assay [1], 12 nM in assay [2], > 100 nM in assay [3] and 13 nM at TYK2. Moreover, the “ALK % of inhibition” value in assay [4] was 19%.

Take `N#Cc1cccc(NC(=O)N2CCC(CC(=O)Nc3ccc4cc3CCc3cncc(c3)Nc3ncc(Cl)c(n3)N4)CC2)c1` [Example A142, 4-(2-{[6-Chloro-2,4,8,18,22-pentaazatetracyclo[14.3.1.1(3,7).1(9,13)]docosa-1(20),3(22),4,6,9(21),10,12,16,18-nonaen-12-yl]amino}-2-oxoethyl)-N-(3-cyanophenyl)piperidine-1-carboxamide bis(trifluoroacetate)]: the IC50 in assay [1] is 2.4 nM; in assay [2], 4.8 nM; in assay [3], > 100 nM; against TYK2, 6.5 nM. In addition, the “ALK % of inhibition” value in assay [4] is 41%.

For the compound `N#Cc1ccc(NC(=O)N2CCC(CC(=O)Nc3ccc4cc3CCc3cncc(c3)Nc3ncc(Cl)c(n3)N4)CC2)cc1` [Example A143, 4-(2-{[6-Chloro-2,4,8,18,22-pentaazatetracyclo[14.3.1.1(3,7).1(9,13)]docosa-1(20),3(22),4,6,9(21),10,12,16,18-nonaen-12-yl]amino}-2-oxoethyl)-N-(4-cyanophenyl)piperidine-1-carboxamide bis(trifluoroacetate)], the 50% inhibitory concentration (IC50) in assay [1] was 2.2 nM; in assay [2], 1.8 nM; in assay [3] it was > 100 nM; against TYK2 it was 1.2 nM. In addition, in assay [4], the “ALK % of inhibition” value is recorded as 63%.

As to `O=C(CC1CCN(C(=O)Nc2cccnc2)CC1)Nc1ccc2cc1CCc1cncc(c1)Nc1ncc(Cl)c(n1)N2` [Example A144, 4-(2-{[6-Chloro-2,4,8,18,22-pentaazatetracyclo[14.3.1.1(3,7).1(9,13)]docosa-1(20),3(22),4,6,9(21),10,12,16,18-nonaen-12-yl]amino}-2-oxoethyl)-N-pyridin-3-ylpiperidine-1-carboxamide bis(trifluoroacetate)], the 50% inhibitory concentration (IC50) is 1.2 nM in assay [1], 6.4 nM in assay [2], > 100 nM in assay [3] and 11 nM at TYK2. In assay [4], the “ALK % of inhibition” value amounted to 35%.

`Cc1noc(C)c1NC(=O)N1CCC(CC(=O)Nc2ccc3cc2CCc2cncc(c2)Nc2ncc(Cl)c(n2)N3)CC1` [Example A145, 4-(2-{[6-Chloro-2,4,8,18,22-pentaazatetracyclo[14.3.1.1(3,7).1(9,13)]docosa-1(20),3(22),4,6,9(21),10,12,16,18-nonaen-12-yl]amino}-2-oxoethyl)-N-(3,5-dimethylisoxazol-4-yl)piperidine-1-carboxamide bis(trifluoroacetate)]: the half-maximal inhibitory concentration (IC50) in assay [1] was 16 nM; in assay [2], 30 nM; in assay [3], > 100 nM; against TYK2, 43 nM. Also, the “ALK % of inhibition” value in assay [4] (bis(trifluoroacetate)) came out at 21%.

On to `O=C(CC1CCN(C(=O)Nc2ccccc2F)CC1)Nc1ccc2cc1CCc1cncc(c1)Nc1ncc(Cl)c(n1)N2` [Example A146, 4-(2-{[6-Chloro-2,4,8,18,22-pentaazatetracyclo[14.3.1.1(3,7).1(9,13)]docosa-1(20),3(22),4,6,9(21),10,12,16,18-nonaen-12-yl]amino}-2-oxoethyl)-N-(2-fluorophenyl)piperidine-1-carboxamide bis(trifluoroacetate)], for which the half-inhibitory concentration (IC50) in assay [1] is 0.9 nM; in assay [2], 3.6 nM; in assay [3], > 100 nM; against TYK2, 7.1 nM. Moreover, in assay [4], the “ALK % of inhibition” value is reported as 34%.

For the compound `O=C(CC1CCN(C(=O)Nc2cccc(F)c2)CC1)Nc1ccc2cc1CCc1cncc(c1)Nc1ncc(Cl)c(n1)N2` [Example A147, 4-(2-{[6-Chloro-2,4,8,18,22-pentaazatetracyclo[14.3.1.1(3,7).1(9,13)]docosa-1(20),3(22),4,6,9(21),10,12,16,18-nonaen-12-yl]amino}-2-oxoethyl)-N-(3-fluorophenyl)piperidine-1-carboxamide bis(trifluoroacetate)], the IC50 in assay [1] is 0.3 nM; in assay [2] it was 1.9 nM; in assay [3] it was > 100 nM; on TYK2, 7.4 nM. The “ALK % of inhibition” value in assay [4] worked out at 46%.

For `O=C(CC1CCN(C(=O)Nc2ccc(F)cc2)CC1)Nc1ccc2cc1CCc1cncc(c1)Nc1ncc(Cl)c(n1)N2` [Example A148, 4-(2-{[6-Chloro-2,4,8,18,22-pentaazatetracyclo[14.3.1.1(3,7).1(9,13)]docosa-1(20),3(22),4,6,9(21),10,12,16,18-nonaen-12-yl]amino}-2-oxoethyl)-N-(4-fluorophenyl)piperidine-1-carboxamide bis(trifluoroacetate)], the IC50 in assay [1] was 0.2 nM; in assay [2] it was 1.5 nM; in assay [3], > 100 nM; against TYK2, 3.9 nM. Also, in assay [4], the “ALK % of inhibition” value was found to be 42%.
